“Also recorded” adds a separate entry of the source.
Tests used:
DR cells = assay: DR lymphoma cell growth, MTT assay; type: cell-based, human; details: 100 μg/ml, day 6
Protocol: (§1) For cell proliferation assays, cells were grown in 10% FCS culture medium containing various amounts of IFNs and/or sodium stibogluconate in 96 well plates and cultured at 37° C. for 3 or 6 days as indicated. The numbers of viable cells in proliferation assays were determined by MTT assays as described in Phatak et al., J. Immunol. 167, 3391 (2001).

WiT49-N1 cells = assay: WiT49-N1 Wilms tumor cell growth, MTT assay; type: cell-based, human; details: single agent, day 6; killing at 100 μg/ml
Protocol: as §1

human peripheral blood = assay: ELISPOT of cytokine-positive cells in human peripheral blood treated in vitro; type: cell-based; details: comparable conditions
PRL-3 = target: T1, PRL-3 (Homo sapiens, UniProt O75365); assay: In vitro PTPase assay, recombinant PRL-3, DiFMUP substrate; type: biochemical; details: comparable conditions
T1 construct: GST (N); made in house; host or cells: DHSa (DH5a) bacteria
T1 sequence (O75365 whole entry): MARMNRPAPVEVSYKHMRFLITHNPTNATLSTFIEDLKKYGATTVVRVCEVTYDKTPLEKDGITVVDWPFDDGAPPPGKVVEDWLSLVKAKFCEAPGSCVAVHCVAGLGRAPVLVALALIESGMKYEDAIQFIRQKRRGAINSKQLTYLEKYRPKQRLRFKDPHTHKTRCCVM
Protocol: In vitro PTPase assays were used to determine the effects of compounds on recombinant PTPases, following established procedures using a synthetic phosphotyrosine peptide or DiFMUP as the substrate (Pathak et al., J. Imumol. 167, 3391 (2001)). Briefly, individual PTPases (0.1 µg/reaction) in 50 μL of PTPase buffer (50 mM Tris, pH 7.4) were incubated at 22° C. for 10 minutes or as indicated in the absence or presence of inhibitory compounds. Substrates (0.2 mM phosphotyrosine peptide) were then added and allowed to react at 22° C. for 18 hrs. PTPase activity of individual reactions was measured by adding 100 µL of malachite green solution (UBI) and then quantifying the amounts of free phosphate cleaved by the PTPase from the peptide substrate by spectrometry (OD660 nm). PTPase assays using DiFMUP as a substrate were conducted following a previously described procedure (Matter, et al., Biochem. Biophys. Res. Comm. 283, 1061 (2001)). Relative PTPase activities were calculated based on the formula: (PTPase activity in the presence of an inhibitory compound/PTPase activity in the absence of the compound)× 100%. To assess the reversibility of PTPase inhibition, GST fusion proteins of the PTPases bound on glutathione beads (Pharmacia) were pre-incubated with cold Tris buffer (50 mM Tris, pH 7.0) or Tris buffer containing the inhibitor at 4° C. for 30 minutes. The beads were then washed three times in cold Tris buffer or not washed prior to subjecting to in vitro PTPase assays.

Jurkat cells = assay: IFN-gamma secretion by Jurkat cells, ELISA; type: cell-based, human; details: 16 hrs
Protocol: Jurkat cells were cultured in the absence or presence of various amounts of SSG for 16 hours. The cells and culture medium supernatants were separated by centrifugation (1,000 g, 10 min). The amounts of IFN-gamma in the culture medium supernatants were quantified using an ELISA kit (R.D. system, Minneapolis, Minn.) following the manufacturer's protocol.

intracellular Flag-PRL-2 = target: T2, intracellular Flag-PRL-2 (Homo sapiens, UniProt Q12974); assay: Immunocomplex PTPase assay, Flag-PRL-2 NIH3T3 transfectants; type: cell-based, mouse
T2 construct: expressed in transfected cells; host or cells: NIH3T3 transfectants, pBabepuro vector
T2 sequence (Q12974 whole entry): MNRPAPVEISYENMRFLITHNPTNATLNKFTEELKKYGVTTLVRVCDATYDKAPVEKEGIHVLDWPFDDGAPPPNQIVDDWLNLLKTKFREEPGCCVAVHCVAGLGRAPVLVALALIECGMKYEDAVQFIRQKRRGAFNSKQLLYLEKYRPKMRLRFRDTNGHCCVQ
Protocol: Immunocomplex PTPase assays were performed to assess the effects of sodium stibogluconate on intracellular PTPases. Cells were untreated or treated with sodium stibogluconate for 5 minutes, washed with fresh medium and then lysed in cold lysis buffer (50 mM Tris, pH 7.4; 150 mM NaCl; 1% NP40; 2 mM PMSF; 20, g/ml of Aprotinin). The lysates were incubated with an anti-Flag antibody in immunoprecipitation assays. The immunocomplexes were collected with protein G sepharose beads (Pharmacia) and washed in cold lysis buffer for 4 times. […] 100 µL of malachite green solution (UBI) was added to each reaction prior to measurement of OD660 to quantify the amounts of free phosphate cleaved by the PTPases from the peptide substrate (Pathak et al., J. Imumol. 167, 3391 (2001)). The remaining 10% contents of individual samples were analyzed by SDS-PAGE/Western blotting to quantify the relative amounts of the phosphatase proteins. […]
The effects of sodium stibogluconate on intracellular PTPases were assessed using NIH3T3 or WM9 transfectants. […]

PTP1B = target: T3, PTP1B (Homo sapiens, UniProt P18031); assay: In vitro PTPase assay, GST/PTP1B; type: biochemical; details: compared with levamisole, pentamidine, ketoconazole
T3 construct: GST; purchased Upstate Biotechnology Inc. (Lake Placid, N.Y.)
T3 sequence (P18031 whole entry, species assumed): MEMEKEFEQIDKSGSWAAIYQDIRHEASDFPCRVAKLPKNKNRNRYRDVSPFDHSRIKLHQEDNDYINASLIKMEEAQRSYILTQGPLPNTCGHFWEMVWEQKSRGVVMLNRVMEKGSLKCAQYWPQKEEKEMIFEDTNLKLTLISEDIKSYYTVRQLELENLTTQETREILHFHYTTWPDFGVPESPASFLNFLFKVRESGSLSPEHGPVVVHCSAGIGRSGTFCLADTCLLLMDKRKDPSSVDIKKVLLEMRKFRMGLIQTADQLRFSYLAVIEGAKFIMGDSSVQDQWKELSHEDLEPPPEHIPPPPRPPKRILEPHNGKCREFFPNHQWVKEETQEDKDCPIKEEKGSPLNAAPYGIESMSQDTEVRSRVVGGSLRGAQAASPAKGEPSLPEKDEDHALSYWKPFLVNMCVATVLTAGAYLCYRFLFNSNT
Protocol: In vitro PTPase activities were measured using the commercial protein tyrosine phosphatase assay kit (Upstate Biotechnology, Inc. (“UBI”)) following established procedure known to one of skill in the art. This assay measures the in vitro dephosphorylation of a synthetic phosphotyrosine peptide of the sequence Arg-Arg-Leu-Ile-Glu-Asp-Ala-Gle-Tyr-Ala-Ala-Arg-Gly, wherein the tyrosine is phosphorylated (SEQ ID NO: 3). Briefly, 0.01 µg of GST/PTPase fusion proteins was incubated in 50 μL of Tris buffer (10 mM Tris, pH 7.4) containing different concentrations of inhibitors or chemicals (0-1,000 μg/ml) at 22° C. for 10 minutes, followed by addition of 0.2 mM of the phosphotyrosine peptide and incubation at 22° C. for 18 hours. 100 μL of Malachite Green solution was added and incubated for 5 minutes, and the absorbance at 660 nm was measured after 5 minutes.
In vitro PTPase assays were used to determine the effects of levamisole (Sigma), pentamidine (American Pharmaceutical Partners, Inc.), and ketoconazole (Sigma) on recombinant PTPases, following established procedures (Pathak et al., J. Imumol. 167, 3391 (2001); Pathak et al., Leukemia 16, 2285 (2002), Yi et al., J. Immunol. 169, 5978 (2002)) using a synthetic phosphotyrosine peptide or DiFMUP as the substrate as detailed above in section I.A.2.

## O.O.O.O.O.O.O.O.O.O=C([O-])[C@@H]1[O][Sb]2([O-])([O][Sb]34([OH])[O][C@H]([C@H](O)CO)[C@H]([O]3)[C@H](C(=O)[O-])[O]4)[O][C@H]([C@H](O)CO)[C@@H]1[O]2.[Na+].[Na+].[Na+] [sodium stibogluconate]
DR cells
  killing of DR cells: complete or near complete killing
WiT49-N1 cells
  sensitivity/killing of WiT49-N1 cells: sensitive; also recorded: complete or near complete killing
Human peripheral blood
  induction of IL-5+ cells: not induced
PRL-3
  inhibition of PRL-3 with DiFMUP substrate: also detected
Jurkat cells
  IFN-gamma secretion by Jurkat T cells: increased amounts of IFN-gamma
Intracellular Flag-PRL-2; 5 min treatment
  PTPase activity of Flag-PRL-2 immunocomplexes from treated cells: lack of PTPase activity; also recorded: markedly reduced PTPase activity
Intracellular Flag-PRL-2; brief treatment
  time for full removal of effect on intracellular PRL-2 activity: at least 24 hours
PTP1B
  inhibition of PTP1B: only modestly effective

— patent US20080226596A1, “Therapeutic compositions and methods useful in treating hepatitis” (priority 2006, published 2008)
